Drawing on PubChem BioAssay AID220 (DTP/NCI, 2004), this text covers T/C for eight molecules.

The structures appear in SMILES notation. Several values for one entry are separate records, joined by “and”; a condition that tells them apart may be missing. Equal entries are not always repeated. Results filed as inconclusive are left out.

The assay relates to CD8F1 mice, subcutaneous mammary adenocarcinoma, T/C%. The assay can be described thus: NCI In Vivo Anticancer Drug Screen. Data for tumor model Mammary Adenocarcinoma CD8F1 (subcutaneous) in CD8F1. The note with it: higher = larger tumour. In short, it runs like this: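 Transplantable tumors were established in mice, animals were dosed with compound or vehicle, and survival or tumor size was then measured in both groups. The treated result was divided by the control result.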

For the molecule `Nc1ncn(C2OC(CO)C(O)C2O)c(=O)n1` (stereo unspecified), the T/C was 58 % of control (endpoint: mean tumor weight (est.), dose: 2.0 mg/kg/injection, schedule: Q07DX003 (ip), vehicle: other); 32 % of control (endpoint: mean tumor weight (est.), dose: 8.0 mg/kg/injection, schedule: Q07DX003 (ip), vehicle: other); 63 % of control (endpoint: median tumor weight (est.), dose: 1.0 mg/kg/injection, schedule: Q07DX005 (ip), vehicle: saline); 81 % of control (endpoint: median tumor weight (est.), dose: 2.0 mg/kg/injection, schedule: Q07DX005 (ip), vehicle: saline); 22 % of control (endpoint: median tumor weight (est.), dose: 4.0 mg/kg/injection, schedule: Q07DX005 (ip), vehicle: saline); 20 % of control (endpoint: median tumor weight (est.), dose: 8.0 mg/kg/injection, schedule: Q07DX005 (ip), vehicle: saline). In addition, the T/C was 22 % of control (endpoint: median tumor weight (est.), dose: 8.0 mg/kg/injection, schedule: Q07DX005 (ip), vehicle: suspension in saline); 3 % of control (endpoint: median tumor weight (est.), dose: 16.0 mg/kg/injection, schedule: Q07DX005 (ip), vehicle: saline); 2 % of control (endpoint: median tumor weight (est.), dose: 16.0 mg/kg/injection, schedule: Q07DX005 (ip), vehicle: suspension in saline); 89 % of control (endpoint: median tumor weight change, dose: 3.75 mg/kg/injection, schedule: Q01DX001 (ip), vehicle: saline); 45 % of control (endpoint: median tumor weight change, dose: 7.5 mg/kg/injection, schedule: Q01DX001 (ip), vehicle: saline); 38 % of control (endpoint: median tumor weight change, dose: 15.0 mg/kg/injection, schedule: Q01DX001 (ip), vehicle: saline). The T/C (endpoint: median tumor weight change, dose: 30.0 mg/kg/injection, schedule: Q01DX001 (ip), vehicle: saline) is 36 % of control; the T/C (endpoint: median tumor weight change, dose: 62.5 mg/kg/injection, schedule: Q01DX001 (ip), vehicle: saline) is 123 % of control; the T/C (endpoint: median tumor weight change, dose: 125.0 mg/kg/injection, schedule: Q01DX001 (ip), vehicle: saline) was 103 % of control; the T/C (endpoint: median tumor weight change, dose: 135.0 mg/kg/injection, schedule: Q01DX001 (ip), vehicle: saline) is 44 % of control; the T/C (endpoint: median tumor weight change, dose: 250.0 mg/kg/injection, schedule: Q01DX001 (ip), vehicle: saline) was 86 % of control; the T/C (endpoint: median tumor weight change, dose: 500.0 mg/kg/injection, schedule: Q01DX001 (ip), vehicle: saline) is 106 % of control. In addition, the T/C (endpoint: median tumor weight change, dose: 600.0 mg/kg/injection, schedule: Q01DX001 (ip), vehicle: suspension in saline) was 17 % of control; the T/C (endpoint: median tumor weight change, dose: 1000.0 mg/kg/injection, schedule: Q01DX001 (ip), vehicle: saline) is 103 % of control; the T/C (endpoint: median tumor weight change, dose: 1350.0 mg/kg/injection, schedule: Q01DX001 (ip), vehicle: suspension in saline) is -11 % of control; the T/C (endpoint: median tumor weight change, dose: 1800.0 mg/kg/injection, schedule: Q01DX001 (ip), vehicle: suspension in saline) was 60 % of control; the T/C (endpoint: median tumor weight change, dose: 2025.0 mg/kg/injection, schedule: Q01DX001 (ip), vehicle: suspension in saline) was 16 % of control; the T/C (endpoint: median tumor weight change, dose: 3600.0 mg/kg/injection, schedule: Q01DX001 (ip), vehicle: suspension in saline) was 43 % of control.

As to `CC(CN1CC(=O)NC(=O)C1)N1CC(=O)NC(=O)C1` (stereo unspecified), the T/C (endpoint: median tumor weight (est.), dose: 12.5 mg/kg/injection, schedule: Q07DX005 (ip), vehicle: Klucel (hydroxypropylcellulose) (HPC)) is 59 % of control; the T/C (endpoint: median tumor weight (est.), dose: 25.0 mg/kg/injection, schedule: Q07DX005 (ip), vehicle: Klucel (hydroxypropylcellulose) (HPC)) was 84 % of control; the T/C (endpoint: median tumor weight (est.), dose: 50.0 mg/kg/injection, schedule: Q07DX005 (ip), vehicle: Klucel (hydroxypropylcellulose) (HPC)) is 41 % of control; the T/C (endpoint: median tumor weight (est.), dose: 200.0 mg/kg/injection, schedule: Q07DX005 (ip), vehicle: Klucel (hydroxypropylcellulose) (HPC)) is 21 % of control and 29 % of control; the T/C (endpoint: median tumor weight (est.), dose: 400.0 mg/kg/injection, schedule: Q07DX005 (ip), vehicle: Klucel (hydroxypropylcellulose) (HPC)) was 5 % of control and 11 % of control.

With `NC(=O)c1ccc[n+](Cc2c(Cl)cccc2Cl)c1`, the T/C (endpoint: median tumor weight (est.), dose: 3.0 mg/kg/injection, schedule: Q07DX005 (ip), vehicle: saline) is 171 % of control; the T/C (endpoint: median tumor weight (est.), dose: 6.0 mg/kg/injection, schedule: Q07DX005 (ip), vehicle: saline) is 102 % of control; the T/C (endpoint: median tumor weight (est.), dose: 12.0 mg/kg/injection, schedule: Q07DX005 (ip), vehicle: saline) was 211 % of control; the T/C (endpoint: median tumor weight (est.), dose: 48.0 mg/kg/injection, schedule: Q07DX005 (ip), vehicle: saline) is 186 % of control.

With `CCCCCCCCCCS(=O)CC(CO)NC(=O)/C=C/c1c(C)[nH]c(=O)[nH]c1=O` (stereo unspecified), the T/C by setting is: (endpoint: median tumor weight (est.), dose: 0.75 mg/kg/injection, schedule: Q07DX005 (ip), vehicle: saline with Tween-80) 85 % of control; (endpoint: median tumor weight (est.), dose: 1.5 mg/kg/injection, schedule: Q07DX005 (ip), vehicle: saline with Tween-80) 100 % of control and 106 % of control; (endpoint: median tumor weight (est.), dose: 3.0 mg/kg/injection, schedule: Q07DX005 (ip), vehicle: saline with Tween-80) 124 % of control and 113 % of control; (endpoint: median tumor weight (est.), dose: 6.0 mg/kg/injection, schedule: Q07DX005 (ip), vehicle: saline with Tween-80) 76 % of control; (endpoint: median tumor weight (est.), dose: 12.0 mg/kg/injection, schedule: Q07DX005 (ip), vehicle: saline with Tween-80) 23 % of control; (endpoint: median tumor weight (est.), dose: 48.0 mg/kg/injection, schedule: Q07DX005 (ip), vehicle: saline with Tween-80) 76 % of control.

Turning to `CNC(=O)OCc1c(COC(=O)NC)c(-c2ccc(Cl)c(Cl)c2)n2c1Cc1ccccc1C2`, the T/C (endpoint: median tumor weight change, dose: 125.0 mg/kg/injection, schedule: Q01DX001 (ip), vehicle: distilled water + Tween-80) is 77 % of control; the T/C (endpoint: median tumor weight change, dose: 250.0 mg/kg/injection, schedule: Q01DX001 (ip), vehicle: distilled water + Tween-80) was 67 % of control; the T/C (endpoint: median tumor weight change, dose: 500.0 mg/kg/injection, schedule: Q01DX001 (ip), vehicle: distilled water + Tween-80) is -12 % of control; the T/C (endpoint: median tumor weight change, dose: 1000.0 mg/kg/injection, schedule: Q01DX001 (ip), vehicle: distilled water + Tween-80) was -53 % of control; the T/C (endpoint: median tumor weight change, dose: 2000.0 mg/kg/injection, schedule: Q01DX001 (ip), vehicle: distilled water + Tween-80) was -71 % of control.

On to `O=C1c2c(O)ccc(O)c2C(=O)c2c(NCCNCCO)ccc(NCCNCCO)c21`, for which the T/C (endpoint: median tumor weight (est.), dose: 0.25 mg/kg/injection, schedule: Q07DX005 (ip), vehicle: acid diluted with saline) is 106 % of control; the T/C (endpoint: median tumor weight (est.), dose: 0.5 mg/kg/injection, schedule: Q07DX005 (ip), vehicle: acid diluted with saline) is 93 % of control; the T/C (endpoint: median tumor weight (est.), dose: 0.5 mg/kg/injection, schedule: Q07DX005 (ip), vehicle: water) is 59 % of control; the T/C (endpoint: median tumor weight (est.), dose: 1.0 mg/kg/injection, schedule: Q07DX005 (ip), vehicle: acid diluted with saline) is 82 % of control; the T/C (endpoint: median tumor weight (est.), dose: 1.0 mg/kg/injection, schedule: Q07DX005 (ip), vehicle: water) was 112 % of control; the T/C (endpoint: median tumor weight (est.), dose: 2.0 mg/kg/injection, schedule: Q07DX005 (ip), vehicle: acid diluted with saline) was 65 % of control.

On to `COc1cc(C(=O)c2cocc2C(=O)c2ccc3c(c2)OCO3)cc(OC)c1OC`, for which the T/C is 92 % of control (endpoint: median tumor weight change, dose: 125.0 mg/kg/injection, schedule: Q01DX001 (ip), vehicle: Klucel (hydroxypropylcellulose) (HPC)); 73 % of control (endpoint: median tumor weight change, dose: 250.0 mg/kg/injection, schedule: Q01DX001 (ip), vehicle: Klucel (hydroxypropylcellulose) (HPC)); 62 % of control (endpoint: median tumor weight change, dose: 500.0 mg/kg/injection, schedule: Q01DX001 (ip), vehicle: Klucel (hydroxypropylcellulose) (HPC)); 40 % of control (endpoint: median tumor weight change, dose: 1000.0 mg/kg/injection, schedule: Q01DX001 (ip), vehicle: Klucel (hydroxypropylcellulose) (HPC)).

For the molecule `NC(=O)c1ncn(C2OC(CO)C(O)C2O)n1` (stereo unspecified), the T/C by setting is: (endpoint: mean tumor weight, dose: 12.5 mg/kg/injection, schedule: Q07DX006 (ip), vehicle: saline) 120 % of control; (endpoint: mean tumor weight, dose: 25.0 mg/kg/injection, schedule: Q07DX006 (ip), vehicle: saline) 288 % of control; (endpoint: mean tumor weight, dose: 50.0 mg/kg/injection, schedule: Q07DX006 (ip), vehicle: saline) 60 % of control; (endpoint: mean tumor weight, dose: 100.0 mg/kg/injection, schedule: Q07DX006 (ip), vehicle: saline) 35 % of control; (endpoint: mean tumor weight, dose: 200.0 mg/kg/injection, schedule: Q07DX006 (ip), vehicle: saline) 41 % of control; (endpoint: mean tumor weight, dose: 400.0 mg/kg/injection, schedule: Q07DX006 (ip), vehicle: saline) 27 % of control. The T/C reads like this: (endpoint: median tumor weight (est.), dose: 12.5 mg/kg/injection, schedule: Q07DX005 (ip), vehicle: saline) 118 % of control; (endpoint: median tumor weight (est.), dose: 25.0 mg/kg/injection, schedule: Q07DX005 (ip), vehicle: saline) 165 % of control; (endpoint: median tumor weight (est.), dose: 50.0 mg/kg/injection, schedule: Q07DX005 (ip), vehicle: saline) 97 % of control; (endpoint: median tumor weight (est.), dose: 100.0 mg/kg/injection, schedule: Q07DX005 (ip), vehicle: saline) 102 % of control; (endpoint: median tumor weight (est.), dose: 200.0 mg/kg/injection, schedule: Q07DX005 (ip), vehicle: saline) 46 % of control; (endpoint: median tumor weight (est.), dose: 400.0 mg/kg/injection, schedule: Q07DX005 (ip), vehicle: saline) 48 % of control.
